The test system of one experiment is all of the test strains. Put plainly: Antibiotic activity (MIC) of control 2-aminoimidazoles against the test strains. The format is cell-based. The method, then: To examine the necessity of the 4,5-disubstitution pattern for antimicrobial activity of the 2-aminoimidazole scaffold, two monosubstituted 2-aminoimidazole analogues of compound 19 were synthesized and screened alongside the parent 2-aminoimidazole for antibiotic activity (Scheme 2). Heptanoic acid and phenylhexanoic acid were treated with oxalyl chloride with catalytic dimethyl formamide in dichloromethane to produce the respective acid chlorides, which were then reacted with diazomethane and quenched with hydrobromic acid to make the respective alpha-bromo ketones. These alpha-bromo ketones were separately cyclized with boc-guanidine, providing a boc-protected 2-aminoimidazole scaffold that was subsequently deprotected upon treatment with trifluoroacetic acid in dichloromethane to yield 22 and 23.
(§1) Broth Microdilution Method for MIC Determination.

Another experiment deals with Vibrio cholerae. Description: Marine bacteria microdilution MIC. The format is cell-based. As to conditions: Vibrio cholerae, V. cholerae.
The test system of a further experiment is Listonella anguillarum. Put plainly: Marine bacteria microdilution MIC. The following applies: Vibrio anguillarum, L. anguillarum. In general terms: In broth dilution the organism is exposed to a series of concentrations in liquid medium.
In experiment [1] the test system is Rhodospirillum salexigens. Put plainly: Marine bacteria microdilution MIC. As to conditions: Rhodothalassium salexigens, R. salexigens.
The test system of experiment [2] is MDRAB. Put plainly: Biofilm formation inhibition, crystal violet reporter assay. Format: cell-based. On the procedure: (§2) The ability of each member of the pilot library to inhibit either E. coli or MDRAB biofilm formation at 100 μM was assessed using a crystal violet reporter assay (O'Toole et al., Mol. Microbiol., 1998, 30: 295-304).
In general terms: Reporter assays use an easily measured gene product as a stand-in for the process of interest.

The test system of experiment [3] is E. coli. The description is as above. The format is cell-based. The following applies: Escherichia coli, 100 μM. On the procedure:
as §2
This is typically indicative of biofilm inhibition via a traditional microbicidal mechanism instead of a mechanism that modulates biofilm formation through non-microbicidal mechanisms. […] At this concentration, a 97% reduction in bacterial growth was observed.

Experiment [4] deals with E. coli. Put plainly: Broth microdilution MIC. Format: cell-based. The following applies: Escherichia coli. The method, then:
(§3) Once it was determined that this specific 4,5-disubstitution pattern imparted microbicidal activity onto the 2-AI framework, this activity was quantified by measuring the MIC of each derivative against a variety of representative pathogenic bacterial strains using the microdilution protocol (CSLI, Performance Standards for Antimicrobial Suceptibility Testing; Nineteenth Informational Supplement, Clinical and Laboratory Standards Institute, Wayne, Pa., 2009). E. coli, MDRAB, P. aeruginosa, MRSA, MSSA, S. epidermidis and VRE were used for initial evaluation. From this screen, compound 15 was determined to be the lead compound and had MIC values (μg/mL) of 2, 2, 1, 0.5, 0.25, and 1 against E. coli, MDRAB, MRSA, VRE, S. Epidermidis and MSSA.
(§4) S. aureus (ATCC #29213), S. epidermidis (ATCC #29886), MRSA (ATCC # BAA-44), MDRAB (ATCC # BAA-1605), vancomycin resistant Enterococcus faecium (VRE) (ATCC #51559) and E. coli (ATCC #35695) were obtained from the ATCC. Mechanically difibrinated sheep blood (DSB100) was obtained from Hemostat Labs. Mueller-Hinton medium was purchased from Fluka (#70192).
as §1

Experiment [5] has as its system MDRAB. Put plainly: Broth microdilution MIC. Format: cell-based. On the procedure:
as §3, §4, §1

A further experiment concerns S. epidermidis. Description: Broth microdilution MIC. Format: cell-based. On the procedure:
as §3, §4, §1

The next experiment relates to Vibrio vulnificus. Put plainly: Marine bacteria microdilution MIC. As to conditions: Vibrio vulnificus, V. vulnificus.
The next experiment relates to MSSA. Description: Broth microdilution MIC. The format is cell-based, S. aureus. The following applies: Staphylococcus aureus. The method, then:
as §3, §4, §1

The test system of another experiment is MRSA. Put plainly: Broth microdilution MIC. As to conditions: Staphylococcus aureus. The format is cell-based, methicillin-resistant S. aureus. The method, then:
as §3, §4, §1

A further experiment deals with VRE. Put plainly: Broth microdilution MIC. The format is cell-based, vancomycin resistant Enterococcus faecium. As to conditions: Enterococcus. The method, then:
as §3, §4, §1

[6] abbreviates: Staphylococcus epidermidis, read-out: MIC.

In brackets after ≈: the same amount, converted by molar mass. Read-outs that look alike come from different tables or passages of the source.

Take `Nc1ncc[nH]1` [Compound 21, 2-aminoimidazole, reference compound]: the antibiotic activity result in the experiment on all of the test strains (highest concentration tested (36 μg/mL), every bacterial strain) is on record as “no antibiotic activity”.
`CCc1[nH]c(N)nc1CCCCCc1ccccc1` [Compound 12, 5-ethyl-4-(5-phenylpentyl)-1H-imidazol-2-amine]: the MIC in the experiment on Vibrio cholerae turned out to be 29.4 µg/mL (≈ 114 µM); in the experiment with Listonella anguillarum, 14.7 µg/mL (≈ 57.1 µM); in [1] it was 14.7 µg/mL (≈ 57.1 µM); in the experiment with E. coli [4] it was 16 µg/mL (≈ 62.2 µM); with MDRAB [5] it was 32 µg/mL (≈ 124 µM); in the experiment with S. epidermidis (setting [6]) it was 2 µg/mL (≈ 7.77 µM). For the same compound, the MIC is 29.4 µg/mL (≈ 114 µM) in the experiment on Vibrio vulnificus, 4 µg/mL (≈ 15.5 µM) with MSSA, 8 µg/mL (≈ 31.1 µM) in the experiment with MRSA and 8 µg/mL (≈ 31.1 µM) in the experiment on VRE. In addition, the inhibition at 100 µM is 94.5 ± 0.2% in the experiment on MDRAB [2] and > 99% in the experiment with E. coli [3].
Turning to `CCCc1[nH]c(N)nc1CCCCCc1ccccc1` [Compound 13, 4-(5-phenylpentyl)-5-propyl-1H-imidazol-2-amine], the MIC was 15.4 µg/mL (≈ 56.7 µM) against Vibrio cholerae; 7.7 µg/mL (≈ 28.4 µM) against Listonella anguillarum; 3.85 µg/mL (≈ 14.2 µM) in [1]; 8 µg/mL (≈ 29.5 µM) against E. coli [4]; 8 µg/mL (≈ 29.5 µM) in the experiment with MDRAB [5]; 0.5 µg/mL (≈ 1.84 µM) in the experiment on S. epidermidis (setting [6]). In addition, the MIC against Vibrio vulnificus was 3.85 µg/mL (≈ 14.2 µM); in the experiment on MSSA it was 4 µg/mL (≈ 14.7 µM); in the experiment on MRSA, 4 µg/mL (≈ 14.7 µM); in the experiment on VRE, 4 µg/mL (≈ 14.7 µM). In addition, the inhibition at 100 µM turned out to be 87.8 ± 0.3% in the experiment on MDRAB [2] and 95.8 ± 1.5% in the experiment on E. coli [3].
Consider `Cc1[nH]c(N)nc1CCCCCc1ccccc1` [Compound 11, 5-methyl-4-(5-phenylpentyl)-1H-imidazol-2-amine], for which the MIC against Vibrio cholerae is 27.9 µg/mL (≈ 115 µM); in the experiment with Listonella anguillarum, 13.9 µg/mL (≈ 57.1 µM); in experiment [1], 7 µg/mL (≈ 28.8 µM); against E. coli [4] it was 8 µg/mL (≈ 32.9 µM); against MDRAB [5], 8 µg/mL (≈ 32.9 µM); in the experiment with S. epidermidis (setting [6]), 1 µg/mL (≈ 4.11 µM). Also, the MIC stood at 13.9 µg/mL (≈ 57.1 µM) against Vibrio vulnificus, 2 µg/mL (≈ 8.22 µM) with MSSA, 4 µg/mL (≈ 16.4 µM) in the experiment on MRSA and 8 µg/mL (≈ 32.9 µM) in the experiment on VRE. The inhibition at 100 µM in the experiment with MDRAB [2] is > 99%; in the experiment with E. coli [3], 96.3 ± 0.08%.
For `CCCCc1[nH]c(N)nc1CCCCCc1ccccc1` [Compound 14, 5-butyl-4-(5-phenylpentyl)-1H-imidazol-2-amine], the MIC against Vibrio cholerae came out at 8.05 µg/mL (≈ 28.2 µM); with Listonella anguillarum, 4.02 µg/mL (≈ 14.1 µM); in experiment [1] it was 8.05 µg/mL (≈ 28.2 µM); in the experiment on E. coli [4], 4 µg/mL (≈ 14 µM); with MDRAB [5], 4 µg/mL (≈ 14 µM); in the experiment on S. epidermidis (setting [6]) it was 0.25 µg/mL (≈ 0.876 µM). In addition, the MIC in the experiment with Vibrio vulnificus amounted to 4.02 µg/mL (≈ 14.1 µM); in the experiment on MSSA, 2 µg/mL (≈ 7.01 µM); in the experiment on MRSA, 2 µg/mL (≈ 7.01 µM); in the experiment on VRE it was 2 µg/mL (≈ 7.01 µM). Moreover, the results for the inhibition at 100 µM in the experiment with MDRAB [2] and in the experiment with E. coli [3] were 85.4 ± 0.7% and 96.9 ± 1.1%, respectively.
For the compound `CCCCCCc1c[nH]c(N)n1.Cl` [Compound 22, 4-hexyl-1H-imidazol-2-amine hydrochloride], the MIC in the experiment on all of the test strains (Staphylococcus epidermidis, all of the test strains except for S. epidermidis) was > 41 µg/mL; with S. epidermidis (setting [6]), 0.04 µg/mL.
With `Cl.Nc1nc(CCCCCc2ccccc2)c[nH]1` [Compound 23], in the experiment with all of the test strains (any of the test strains except for S. epidermidis), the antibiotic activity entry was “no notable antibiotic activity”. The MIC against S. epidermidis turned out to be 0.05 µg/mL.

The MIC is the lowest concentration found to suppress growth. As usually defined, the inhibition is how much of the control response was suppressed.

For the origin of these results see US9815794B2, “Inhibition of bacterial biofilms and microbial growth with imidazole derivatives” (North Carolina State University, priority 2011, dated 2017).
